The source of these data is patent US5032505A, “Inhibitors for glycosaminosyl transferase V” (Chembiomed, Ltd., priority 1988, dated 1991).

One data set deals with B16 melanoma. The conditions noted are these: literature; cited from earlier work.
Data set [1] addresses T1, GnT-V (Mesocricetus auratus, UniProt A0A1U8C8T3).
T1 sequence (A0A1U8C8T3 1-740): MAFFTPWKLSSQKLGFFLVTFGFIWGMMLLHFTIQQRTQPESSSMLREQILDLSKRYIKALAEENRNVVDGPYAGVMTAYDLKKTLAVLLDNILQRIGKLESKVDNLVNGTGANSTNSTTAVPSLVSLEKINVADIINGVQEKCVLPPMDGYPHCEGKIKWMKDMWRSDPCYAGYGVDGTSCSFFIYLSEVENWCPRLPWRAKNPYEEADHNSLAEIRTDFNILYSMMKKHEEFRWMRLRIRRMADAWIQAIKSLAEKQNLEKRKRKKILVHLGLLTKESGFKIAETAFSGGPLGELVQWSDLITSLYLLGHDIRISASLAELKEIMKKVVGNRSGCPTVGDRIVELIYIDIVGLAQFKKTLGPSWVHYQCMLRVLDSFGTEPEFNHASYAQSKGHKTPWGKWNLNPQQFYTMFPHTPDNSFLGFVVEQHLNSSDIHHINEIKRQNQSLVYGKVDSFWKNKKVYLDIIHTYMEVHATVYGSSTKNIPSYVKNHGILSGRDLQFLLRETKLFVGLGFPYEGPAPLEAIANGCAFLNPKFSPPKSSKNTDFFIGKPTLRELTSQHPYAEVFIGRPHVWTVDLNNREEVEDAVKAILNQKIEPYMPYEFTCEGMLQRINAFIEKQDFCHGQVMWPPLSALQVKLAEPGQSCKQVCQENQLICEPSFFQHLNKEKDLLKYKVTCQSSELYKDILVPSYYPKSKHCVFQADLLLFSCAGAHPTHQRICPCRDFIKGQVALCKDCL
The conditions noted are these: as acceptor for GnT-V; Palcic reference; read-out: apparent Km; cited from earlier work.

Data set [2] deals with tumor cells. As to conditions: literature; cited from earlier work.
In data set [3] the test system is tumor cells. The conditions noted are these: literature; cited from earlier work. The source holds these as a separate data set.
The next data set concerns MDAY-D2 lymphoma cells. The conditions noted are these: literature; cited from earlier work.
Data set [4] concerns the target T1, GnT-V. In words: GnT-V acceptor assay (transfer of GlcNAc from UDP-GlcNAc to synthetic acceptor). It counts as biochemical. As for the experimental part: One form of the assay is conducted by measuring the uptake of beta-GlcNAc from UDP-beta GlcNAc in the presence of the test extract by the acceptors of the invention. A variety of protocols to detect this uptake can be employed, including, for example, conjugation of the acceptor to a solid support and measuring the uptake of labeled beta-GlcNAc. An illustrative procedure is set forth, using as acceptor the trisaccharide 8-methoxycarbonyl octyl beta-GlcNAc(1-2)alpha-Man(1-6)beta-Man, in Pierce, M., et al, Biochem Biophys Res Commun (1987) 146:679-684, incorporated herein by reference. This procedure uses radiolabeled UDP-beta GlcNAc to provide a detection means for uptake of the substrate. Other protocols for measuring GnT-V using the acceptors of the invention can be adapted, for example, from the procedure used to measure the levels of GnT-V acceptor in EPO published application 134,292 to Abbott Laboratories.
The procedure for assaying GnT-V activity is described in Tahir, S.H., et al, Can J Chem (1986) 64:1771, cited above, and incorporated herein by reference. This procedure is also described in Palcic, M. M., et al, Glycoconjugate J (1988) 5:49, and in Hindsgual, O., et al, Carbohydrate Res (1988) 173:263, both incorporated herein by reference. The latter two citations describe the results of this assay using various synthetic acceptors.

As for `O[C@H]1[C@H](O)[C@@H](O)CN2CC[C@H](O)[C@H]12` [castanospermine], the “organ colonization by B16 melanoma” value with B16 melanoma is on record as “inhibit organ colonization by B16 melanoma”.

One may read the Km as the concentration of substrate that gives half-maximal velocity. With `COC(=O)CCCCCCCCO[C@@H]1O[C@H](CO[C@H]2O[C@H](CO)[C@@H](O)[C@H](O)[C@@H]2O[C@@H]2O[C@H](CO)[C@@H](O)[C@H](O)[C@H]2NC(C)=O)[C@@H](O)[C@H](O)[C@@H]1O` [8-methoxycarbonyloctyl 6-O-[2-O-(2-acetamido-2-deoxy-beta-D-glucopyranosyl)-alpha-D-mannopyranosyl]-beta-D-mannopyranoside], the Michaelis-Menten constant (Km) at GnT-V [1] was 80 µM. Turning to tunicamycin, the “organ colonization by B16 melanoma” value in the data set with B16 melanoma is listed as “inhibit organ colonization by B16 melanoma”.

As to `O[C@H]1[C@H]2[C@H](O)CCCN2C[C@H]1O` [swainsonine], in the data set on tumor cells [2], the “tumor cell growth rate in soft agar” value was “reduce tumor cell growth rate in soft agar”. Also, the “organ colonization by B16 melanoma” value in the data set with B16 melanoma is listed as “inhibit organ colonization by B16 melanoma”. Also, the “susceptibility of tumor cells to natural killer cells” value in the data set on tumor cells [3] was “enhance susceptibility of tumor cells to natural killer cells”. Also, the “colonization by metastatic MDAY-D2 lymphoma cells” value with MDAY-D2 lymphoma cells was “inhibit colonization by metastatic MDAY-D2 lymphoma cells”. For `CC(=O)N[C@H]1[C@H](O[C@@H]2[C@@H](OCC3CCCCC3)O[C@H](CO)[C@@H](O)[C@@H]2O)O[C@H](CO)[C@@H](O)[C@@H]1O` [Cyclohexylmethyl 6-O-[2-O-(2-acetamido-2-deoxy-beta-D-glucopyranosyl)-alpha-D-mannopyranoside]], the “ability to act as an acceptor, relative to the remaining compounds” value on GnT-V [4] (relative to the other five octyl trisaccharide acceptors) was “about 25%”. As for `COC(=O)CCCCCCCCO[C@@H]1O[C@H](CO[C@H]2O[C@H](CO)[C@@H](O)[C@H](O)[C@@H]2O)[C@@H](O)[C@H](O[C@H]2O[C@H](CO)[C@@H](O)[C@H](O)[C@@H]2O)[C@@H]1O` [GnT-1 Acceptor], the entry into cells result in the data set on Lec8 CHO Cells is “has entered the cells to some extent after 3 hr and to a greater extent after 6”. In the case of `CCCCCCCCO[C@@H]1O[C@H]([C@@H](C)O[C@H]2O[C@H](CO)[C@@H](O)[C@H](O)[C@@H]2O[C@@H]2O[C@H](CO)[C@@H](O)[C@H](O)[C@H]2NC(C)=O)[C@@H](O)[C@H](O)[C@H]1O`, the “Vmax relative to the unmethylated analog” value at GnT-V [4] (as acceptor, assay of the Pierce reference) is given as “three times that of the unmethylated analog”. As for `CCCCCCCCO[C@@H]1O[C@H]([C@H](C)O[C@H]2O[C@H](CO)[C@@H](O)[C@H](O)[C@@H]2O[C@@H]2O[C@H](CO)[C@@H](O)[C@H](O)[C@H]2NC(C)=O)[C@@H](O)[C@H](O)[C@H]1O` [proS methylated compound], the “effectiveness as an acceptor” value at GnT-V [4] (compared with the proR methylated compound) is reported as “less effective as an acceptor”.
